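How tested: cells in 96-well plates exposed to compound for 48 hours at five concentrations. GI50: concentration for 50% inhibition of growth.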 Activity calls are given as the source filed them. Cut-off read from the data, not from the text of the source: active = GI50 up to about 1.1 µM and inactive = higher.
What was measured:
Test in all cases: growth of human tumour cells (NCI), 48 h
[1] = test system: K562
[2] = test system: CCRF-CEM
[3] = test system: SK-OV-3
[4] = test system: M19-MEL
[5] = test system: NCI-H460
[6] = test system: IGROV-1
[7] = test system: OVCAR-5
[8] = test system: SK-MEL-28
[9] = test system: TK-10
[10] = test system: HCT-116
[11] = test system: OVCAR-8
[12] = test system: M14
[13] = test system: HCT-15
[14] = test system: UO-31
[15] = test system: UACC-257
[16] = test system: UACC-62
[17] = test system: SK-MEL-5
[18] = test system: SR
[19] = test system: NCI-H226
[20] = test system: HCC 2998
[21] = test system: DLD-1
[22] = test system: ACHN
[23] = test system: CAKI-1
[24] = test system: HOP-92
[25] = test system: Malme-3M
[26] = test system: 786-0
[27] = test system: SF-295
[28] = test system: HOP-18
[29] = test system: HL-60
[30] = test system: SN12C
[31] = test system: RXF 631
[32] = test system: SNB-19
[33] = test system: DMS-114
[34] = test system: COLO 205
[35] = test system: SF-268
[36] = test system: SW-620
[37] = test system: DMS-273
[38] = test system: OVCAR-4
[39] = test system: OVCAR-3
[40] = test system: U-251
[41] = test system: NCI-H23
[42] = test system: A549
[43] = test system: RPMI-8226
[44] = test system: KM-20L2
[45] = test system: LXFL 529
[46] = test system: HOP-62
[47] = test system: MOLT-4
[48] = test system: A498
[49] = test system: HT-29
[50] = test system: LOX IMVI
[51] = test system: EKVX
[52] = test system: SK-MEL-2
[53] = test system: SNB-75
[54] = test system: KM12
[55] = test system: RXF 393
[56] = test system: XF498
[57] = test system: NCI-H522
[58] = test system: SF-539

COC1(OC)C2(Cl)C(Cl)=C(Cl)C1(Cl)C1C2C2CC1(C(=O)O)c1ccccc12 (centres undefined)
GI50 [1]: 15.9 µM (inactive)
GI50 [2]: 4.74 µM (inactive)
GI50 [3]: 33.3 µM (inactive)
GI50 [4]: 18.9 µM (inactive)
GI50 [5]: 20.7 µM (inactive)
GI50 [6]: 28.8 µM (inactive)
GI50 [7]: > 10 µM (inactive)
GI50 [8]: 19.4 µM (inactive)
GI50 [9]: 29.1 µM (inactive)
GI50 [10]: 17.5 µM (inactive)
GI50 [11]: 27.4 µM (inactive)
GI50 [12]: 17.9 µM (inactive)
GI50 [13]: 23.8 µM
GI50 [14]: 21.9 µM (inactive)
GI50 [15]: 14.6 µM (inactive)
GI50 [16]: 16.5 µM (inactive)
GI50 [17]: 15.9 µM (inactive)
GI50 [18]: 9.55 µM (inactive)
GI50 [19]: 26.2 µM (inactive)
GI50 [20]: 22.9 µM (inactive)
GI50 [21]: 17.8 µM (inactive)
GI50 [22]: 35.7 µM (inactive)
GI50 [23]: 31.3 µM (inactive)
GI50 [24]: 35.6 µM (inactive)
GI50 [25]: 16 µM (inactive)
GI50 [26]: 16.4 µM (inactive)
GI50 [27]: 25.4 µM (inactive)
GI50 [28]: 41.2 µM (inactive)
GI50 [29]: 22.1 µM (inactive)
GI50 [30]: 20.5 µM (inactive)
GI50 [31]: 22.4 µM (inactive)
GI50 [32]: 67.1 µM (inactive)
GI50 [33]: 17.5 µM (inactive)
GI50 [34]: 23.9 µM (inactive)
GI50 [35]: 27.6 µM (inactive)
GI50 [36]: 18.8 µM (inactive)
GI50 [37]: 19 µM (inactive)
GI50 [38]: 15 µM (inactive)
GI50 [39]: 18.2 µM (inactive)
GI50 [40]: 18.5 µM (inactive)
GI50 [41]: 14.3 µM (inactive)
GI50 [42]: 28.1 µM (inactive)
GI50 [43]: 17 µM (inactive)
GI50 [44]: 24.2 µM (inactive)
GI50 [45]: 14.6 µM (inactive)
GI50 [46]: 23.4 µM (inactive)
GI50 [47]: 13.6 µM (inactive)
GI50 [48]: 81.1 µM (inactive)
GI50 [49]: 30.3 µM (inactive)
GI50 [50]: 16.7 µM (inactive)

O=S(=O)(/C=C/C(=C/c1ccccc1)S(=O)(=O)c1ccccc1)c1ccccc1
GI50 [51]: 1.77 µM (inactive)
GI50 [1]: 1 µM (active)
GI50 [2]: 0.778 µM (active)
GI50 [3]: 1.44 µM (inactive)
GI50 [5]: 1.78 µM (inactive)
GI50 [6]: 4.06 µM (inactive)
GI50 [52]: 1.89 µM (inactive)
GI50 [8]: 1.49 µM (inactive)
GI50 [53]: 1.87 µM (inactive)
GI50 [9]: 1.85 µM (inactive)
GI50 [10]: 1.72 µM (inactive)
GI50 [11]: 1.63 µM (inactive)
GI50 [54]: 2.16 µM (inactive)
GI50 [12]: 1.28 µM (inactive)
GI50 [13]: 1.51 µM
GI50 [14]: 1.82 µM (inactive)
GI50 [15]: 1.55 µM (inactive)
GI50 [16]: 2.16 µM (inactive)
GI50 [18]: 1.51 µM (inactive)
GI50 [55]: 1.73 µM (inactive)
GI50 [20]: 1.95 µM (inactive)
GI50 [22]: 1.76 µM (inactive)
GI50 [23]: 1.51 µM (inactive)
GI50 [25]: 1.81 µM (inactive)
GI50 [56]: 1.7 µM (inactive)
GI50 [26]: 1.77 µM (inactive)
GI50 [27]: 1.66 µM (inactive)
GI50 [29]: 0.543 µM (active)
GI50 [30]: 1.7 µM (inactive)
GI50 [31]: 1.07 µM (active)
GI50 [32]: 1.78 µM (inactive)
GI50 [33]: 1.57 µM (inactive)
GI50 [34]: 2.16 µM (inactive)
GI50 [35]: 1.91 µM (inactive)
GI50 [36]: 2.04 µM (inactive)
GI50 [57]: 1.45 µM (inactive)
GI50 [37]: 1.52 µM (inactive)
GI50 [38]: 1.67 µM (inactive)
GI50 [39]: 1.73 µM (inactive)
GI50 [40]: 1.83 µM (inactive)
GI50 [41]: 1.93 µM (inactive)
GI50 [42]: 2.13 µM (inactive)
GI50 [43]: 0.61 µM (active)
GI50 [45]: 1.7 µM (inactive)
GI50 [46]: 1.94 µM (inactive)
GI50 [58]: 1.77 µM (inactive)
GI50 [47]: 1.52 µM (inactive)
GI50 [49]: 1.73 µM (inactive)
GI50 [50]: 0.658 µM (active)

Reference: ChEMBL document CHEMBL1201862, “PubChem BioAssay data set” (2004)
